According to paper PMC9763021, “Comprehensive Assessment of Biomolecular Interactions of Morpholine-Based Mixed Ligand Cu(II) and Zn(II) Complexes of 2,2′-Bipyridine as Potential Anticancer and SARS-CoV-2 Agents: A Synergistic Experimental and Structure-Based Virtual Screening” (Bioinorganic Chemistry and Applications, 2022):

Tested on: CT-DNA
Experiment: DNA binding by cyclic voltammetry
Design: species or system calf thymus
Conditions: for K[red]/K[oxi], (calcd): Nernst equation; for K[red]/K[oxi], found (I): from method I; for S (bp), binding site size: method II; for Kb method I, (oxi): oxidation; for Kb method I, red: reduction; for Es° = (Eb° − Ef°): shift of formal potential on DNA binding
Method: The CV titration for free substances was conducted at 10 μM at 25°C in the presence of Tris-HCl buffer solution (pH: 7.4). While CT-DNA increases (0–10 μM) in each sample solution, a shift in potential, including variations in the peak currents of anodic and cathodic sides, has been monitored.
The CV technique is one of the most important tools for investigating the DNA-complex adduct's binding mechanism. The CV properties of all test samples in the presence and absence of DNA were executed at a scan rate (v) 0.1 Vs^−1 with a potential range of +2 to −2 in a Tris-HCl (5 mM)/NaCl (50 mM) (pH = 7.2) solution. The M^1+/M^2+ redox couple is caused by complexes that reveal a single anodic and cathodic peak. […] (Figure S29 and Table 6).
ΔEP is peak-to-peak separation = (EPa − EPc); E°(or) E1/2 is denoted as formal electrode potential = 1/2 (EPa + EPc); Es°=(Eb° − Ef°)Eb° and Ef° are represented as the formal electrode potential of the M^1+/M^2+ couple in the bound and free forms, respectively. Es° = +19 mV (HL), +34 mV (1a), and +31 mV (2a). Ipa is anodic peak current, Ipc is cathodic peak current. K^1+ is binding constant of reduction process, K^2+ is binding constant of oxidation process, S is represented as binding site size of base pairs (bp) with a molecule of complex, Scan rate is 100 mV·s^−1, binding constant (Kb) values observed from the linear plots of log (1/[DNA]) vs. log (I/I0 − I) for oxidation and reduction, (I0 − IDNA)/IDNA = Cp/Cf versus [DNA] and Ip ^2 versus (Ipo ^2 −Ip ^2 )/[DNA] by methods I, II, and III, respectively.(24) DiffusioncoefficientD0=7.51×10^−5 SlopelogI0 −I/I=log DNA+logKb, where I0 and I are represented as the peak currents of the compound in the absence and presence of DNA.(25) log DNA=logI0 −I/I+log1/Kb log1/DNA=logI/I0−I+logKb, (26) I0 −I/I=KbDNA, (27) I0 −I/I=Cb/Cf, where Cf and Cb are denoted as the free substance concentration and DNA-interacted compound, respectively. (29) was obtained by comparing equations (27) and (28).(28) Cb/Cf=KbDNA, (29) Cb/Cf=Kbfreebasrpairs/S , (30) Cb/Cf=KbDNA/2 S +1.
S is denoted as binding site size (bp), and Kb are estimated from (31) with the help of S = (intercept/4)^1/2 and (Kb = 2S (slope/intercept), respectively. Nernst equations are as follows:(31) Es°=Eb°−Ef°=0.0591 /n logKred/Koxi, (32) Kred/Koxi=Ant. log nEb°−Ef°/0.0591.
E 1/2 or Eb° and Ef° are the formal electrode potentials of the M^1+/M^2+ couple in their bound and free forms, respectively.(33) Ip 2 =1/KbDNAIp0 2 −Ip 2 +Ip0 2 −DNA, where Ipo and Ip are denoted as the peak currents of the complexes (1–3) in the absence and presence of DNA.(34) Ipa=2.69×10^5 n^3/2 α^1/2 AC0 ∗D0 1/2 v^1/2 , (35) Ipa=13314.7D0 1/2 v^1/2 , where Ipa is denoted as the anodic peak current in amperes, n is represented as the number of electrons participating in the redox (M^1+/M^2+) process (n = 1), charge transfer coefficient (or) activation coefficient (α)≈0.5 for quasireversible systems, which also calculated from Bard–Faulkner relation(35a) α=47.7/EPa−EP/2.
C0^∗ ⟶ Bulk concentration of the compound, A is denoted as the cross-sectional area of the working electrode (glassy carbon) in cm^2 (A∼0.07 cm^2), D0 is denoted as diffusion coefficient (cm^2 s^−1) of the M^1+/M^2+ couple in the free and bound forms, respectively, and v is denoted as the potential scan rate at 0.1 Volt·s^−1. While the substances often bind to deoxyribonucleic acid through intercalation, the peak potential shifts in a positive direction. When the compounds bind to deoxyribonucleic acid via minor or major grooves or electrostatic attractions, the peak potential shifts occur in a negative direction. […]

SMILES	Kb method II	Kb method III	K[red]/K[oxi], (calcd)	K[red]/K[oxi], found (I)	S (bp), binding site size	Kb method I, (oxi)	Kb method I, red	Es° = (Eb° − Ef°)
[Cu+2].[O-]c1ccccc1N=Cc1ccc(N2CCOCC2)cc1.[O-]c1ccccc1N=Cc1ccc(N2CCOCC2)cc1.c1ccc(-c2ccccn2)nc1 [(1a), [Cu(L)2(bpy)]]	70773 M⁻¹	21567 M⁻¹	3.76	0.8628	0.123 bp	25330 M⁻¹	21854 M⁻¹	+34 mV
Oc1ccccc1N=Cc1ccc(N2CCOCC2)cc1 [(HL), 2-(4-morpholinobenzylideneamino)phenol]	2443 M⁻¹	4837 M⁻¹	2.0964	0.7214	0.452 bp	5280 M⁻¹	3809 M⁻¹	+19 mV
[O-]c1ccccc1N=Cc1ccc(N2CCOCC2)cc1.[O-]c1ccccc1N=Cc1ccc(N2CCOCC2)cc1.[Zn+2].c1ccc(-c2ccccn2)nc1 [(2a), [Zn(L)2(bpy)]]	27693 M⁻¹	18486 M⁻¹	3.34	0.8268	0.270 bp	24610 M⁻¹	20348 M⁻¹	+31 mV
